Experimental data reported in patent US20250352555A1, “METHOD OF INCREASING IMMUNE CELL ACTIVATION AND/OR TREATING CANCER USING DIBENZOXAZEPINONES” (VASCULAR THERAPEUTICS PTY LTD, priority 2022, published 2025).

Tested on: B16F10 melanoma
Assay: Melanoma growth in C57BL/6J mice bearing s.c. B16F10 tumors
Format: in vivo, mouse
Method: Melanoma growth studies in mice. Six-to-eight week old C57BL/6J mice (sourced from Australian Resource Centre, Perth) were inoculated subcutaneously (s.c.) with B16F10 cells (1×10^5 cells/mouse in 100 μl DMEM containing 10% FBS with 50% Matrigel). InVivoPlus anti-mouse PD-1 (CD279) (BioXCell, BP0033-2) or InVivoPlus polyclonal Armenian hamster IgG (Bio X Cell, BP0091) was administered intraperitoneally (i.p.) (100 μg) twice a week. Treatment commenced on Day 7.
Alternatively, BT2 was suspended at 10 mg/ml in vehicle (saline containing 0.5% (v/v) Tween 80 and 0.01% (v/v) DMSO) and sonicated prior to administration. Vehicle or BT2 was administered i.p. (20 ml/kg and 200 mg/kg, respectively) once a day on a 5 days-on/2 days-off schedule. Treatment commenced when tumors were palpable on Day 5.
Tumors were measured by length and width in mm twice per week for MDA-MB-435 in SCID mice and by length, width and height in mm once per day for B16F10 in C57BL/6J mice. Tumor volumes were calculated using formula V=(L×W×H×π)/6 (B16F10) or V=L×W×W/2 (MDA-MB-435). If a second tumor was detected in an animal, both tumor volumes were measured and their volumes combined. Animal protocols were approved by the Explora Biolabs' Institutional Animal Care and Use Committee (IACUC) and the UNSW Animal Care and Ethics Committee.
The preceding xenograft studies showing anti-tumor effects in immunocompromised mice when BT2 is delivered intratumorally (i.t.) but not systemically (i.p.) led the inventors to hypothesize that BT2 could rely upon an active immune system in order to effect tumor growth inhibition. Therefore, the effect of BT2 was tested in an immunocompetent mouse model of melanoma growth using B16F10 melanoma. […]
To assess the effect of BT2 in the same model, C57BL/6J mice bearing s.c. B16F10 tumors were administered with BT2 or vehicle (200 mg/kg or 20 ml/kg, respectively, i.p.) once a day on a 5 days-on/2 days-off schedule. […] Tumor size on Day 17 measured using callipers (FIG. 10A) correlated with isolated weighed tumors (FIG. 10B).

CCOC(=O)Nc1ccc2c(c1)C(=O)N(CC)c1ccccc1O2 [BT2, (10-ethyl-11-oxo-10,11-dihydro-dibenzo[b,f][1,4]oxazepin-2-yl)-carbamic acid ethyl ester]
B16F10 tumor growth (volume) (C57BL/6J mice, 200 mg/kg i.p. once a day, 5 days-on/2 days-off, from Day 5): significant B16F10 growth inhibition from Day 9
body weight (C57BL/6J mice, B16F10, 200 mg/kg i.p. once a day, 5 days-on/2 days-off): no adverse effect on body weight
mice with tumor size exceeding 500 mm^3 (Kaplan-Meier analysis) (Day 17, 200 mg/kg i.p., vehicle 75%): none
